# Columns and labels:
# [1] = Vapor-liquid equilibrium still: relative volatility of m-DIPB to p-DIPB with alcohol agent and azeotrope boiling point; assay type: physicochemical; settings: for Relative Volatility (m-DIPB to p-DIPB): vapor-liquid equilibrium still; for Relative Volatility (m-DIPB to p-DIPB) / Azeotrope B.P.: starting mixture 50 % alcohol, 25 % m-DIPB, 25 % p-DIPB; for Azeotrope B.P.: 640 mm. Hg; for vapor composition, m-DIPB / vapor composition, p-DIPB: gas chromatography; for relative volatility of m-DIPB to p-DIPB: Examples 1 and 2, reflux thirteen or eleven hours
# Text: The data in Tables 2 and 3 were obtained in a vapor-liquid equilibrium still. In each case, the starting material was a mixture containing 50 % alcohol, 25 % m-DIPB and 25 % p-DIPB. The boiling points of the azeotropes at 640 mm. Hg are shown. The relative volatilities are listed for each of the alcohols investigated.
# Forty grams of m-DIPB - p-DIPB mixture and 40 grams of diethylene glycol butyl ether were charged to an Othmer type vapor-liquid equilibrium still and refluxed for thirteen hours. Analysis by gas chromatography gave a vapor composition of 68.9% m-DIPB, 31.1% p-DIPB; a liquid decomposition of […], 36.8% p-DIPB. This indicates a relative volatility of m-DIPB to p-DIPB of 1.29.
# Forty grams of m-DIPB - p-DIPB mixture and 40 grams of diethylene gylcol methyl ether were charged to the vapor-liquid equilibrium still and refluxed for eleven hours. Analysis indicated a vapor composition of 66.7% m-DIPB, 33.3% p-DIPB; a liquid composition of […] which is a relative volatility of 1.28.
# [2] = no agent; prior art description; cited from earlier work
# [3] = m-DIPB and p-DIPB, no agent; cited from earlier work
# [4] = Boiling point and rectification of the isomers without agent; assay type: physicochemical; settings: 99% purity, 75% efficiency, no agent
# Procedure: In the manufacture of cumene, also called isopropylbenzene, by the alkylation of benzene with propylene, the most prevalent by-products are the diisopropylbenzenes with the meta and para isomers comprising most of the by-product. m-Diisopropylbenzene (m-DIPB) boils at 203.2° C. […] boils at 210.3° C. and these two have a relative volatility of 1.14. The difficulty of separating these two by rectification can be shown by the data in Table 1.
# that rectification of m-DIPB from p-DIPB in 99% purity requires 95 actual plates. Using azeotropic distillation with an agent yielding a relative volatility of 1.29 would require only 48 actual plates.
# [5] = Packed rectification column (Berl saddles, 2.3 theoretical plates), Fenske equation; assay type: physicochemical; settings: 80 g m-DIPB, 20 g p-DIPB, 40 g agent, two hours total reflux
# Text: A solution comprising 80 grams of m-DIPB, 20 grams of p-DIPB and 40 grams of o-isopropyl phenol was placed in the stillpot and heated. After two hours of refluxing a total reflux, analysis was made by gas chromatography. The overhead composition was 78% m-DIPB, 22% p-DIPB and the stillpot analysis was 62.7% m-DIPB, 37.3% p-DIPB. Using these compositions in the Fenske equation with the number of theoretical plates in the column being 2.3 gave an average relative volatility of 1.34 for each theoretical plate.
# [6] = 40 g m-DIPB - p-DIPB mixture and 40 g agent
compound,measurement,setting,value
CCCCCCCCO [1-Octanol],Relative Volatility (m-DIPB to p-DIPB),[1],1.14
CCCCC(CC)CO (stereo not drawn) [2-Ethyl hexanol],Azeotrope B.P.,[1],183 °C
same,Relative Volatility of alcohol:DIPB mixture,[1]; one part agent with one part m-DIPB - p-DIPB mixture,1.27
same,Relative Volatility (m-DIPB to p-DIPB),[1],1.27
CCCCCCC(C)O (stereo not drawn) [2-Octanol],Relative Volatility (m-DIPB to p-DIPB),[1],1.10
OCc1ccccc1 [Benzyl alcohol],Relative Volatility (m-DIPB to p-DIPB),[1],1.11
CCCCOCCOCC(C)O (stereo not drawn) [Butoxyethoxypropanol],Azeotrope B.P.,[1],199 °C
same,Relative Volatility (m-DIPB to p-DIPB),[1],1.17
CC(=O)CC(C)(C)O [Diacetone alcohol],Relative Volatility (m-DIPB to p-DIPB),[1],1.13
CCCCOCCOCCO [Diethylene glycol butyl ether],"liquid composition, m-DIPB",[1]; [6],63.2%
same,"liquid composition, p-DIPB (second figure)",[1]; [6],36.8%
same,"vapor composition, m-DIPB",[1]; [6],68.9%
same,"vapor composition, p-DIPB",[1]; [6],31.1%
same,Azeotrope B.P.,[1],200 °C
same,relative volatility of m-DIPB to p-DIPB,[1]; [6],1.29
same,Relative Volatility (m-DIPB to p-DIPB),[1],1.29
CCOCCOCCO [Diethylene glycol ethyl ether],Azeotrope B.P.,[1],185 °C
same,Relative Volatility (m-DIPB to p-DIPB),[1],1.25
COCCOCCO [Diethylene glycol methyl ether],"liquid composition, m-DIPB",[1]; [6],60.9%
same,"vapor composition, m-DIPB",[1]; [6],66.7%
same,"vapor composition, p-DIPB",[1]; [6],33.3%
same,Azeotrope B.P.,[1],182 °C
same,relative volatility of m-DIPB to p-DIPB,[1]; [6],1.28
same,Relative Volatility (m-DIPB to p-DIPB),[1],1.28
CC(C)CC(O)CC(C)C [Diisobutyl carbinol],Azeotrope B.P.,[1],180 °C
same,Relative Volatility (m-DIPB to p-DIPB),[1],1.20
CCCCOCCO [Ethylene glycol butyl ether],Relative Volatility (m-DIPB to p-DIPB),[1],0.6
CCCCCCOCCO [Ethylene glycol hexyl ether],Azeotrope B.P.,[1],195 °C
same,Relative Volatility (m-DIPB to p-DIPB),[1],1.26
OCCOc1ccccc1 [Ethylene glycol phenyl ether],Relative Volatility (m-DIPB to p-DIPB),[1],1.14
CC(C)CCCCCCO [Isononyl alcohol],Azeotrope B.P.,[1],194 °C
same,Relative Volatility (m-DIPB to p-DIPB),[1],1.22
CC(C)CCCCCO [Isooctanol],Relative Volatility (m-DIPB to p-DIPB),[1],1.15
OCCc1ccccc1 [Phenethyl alcohol],Relative Volatility (m-DIPB to p-DIPB),[1],1.06
Oc1ccccc1 [Phenol],Azeotrope B.P.,[1],174 °C
same,Relative Volatility (m-DIPB to p-DIPB),[1],1.24
CC(O)CO (stereo not drawn) [Propylene glycol],Azeotrope B.P.,[1],168 °C
same,Relative Volatility (m-DIPB to p-DIPB),[1],1.28
OCC1CCCO1 (stereo not drawn) [Tetrahydrofurfuryl alcohol],Azeotrope B.P.,[1],171 °C
same,Relative Volatility (m-DIPB to p-DIPB),[1],1.21
Cc1cccc(O)c1 [m-Cresol],Azeotrope B.P.,[1],189 °C
same,Relative Volatility (m-DIPB to p-DIPB),[1],1.17
"CC(C)c1cccc(C(C)C)c1 [m-DIPB, m-Diisopropylbenzene]",boiling point,[2],203.2 °C
same,relative volatility of m-DIPB and p-DIPB without agent,[2],1.14
same,relative volatility used in column calibration,[3],1.14
same,actual plates required for rectification of m-DIPB from p-DIPB,[4],95 actual plates
CCCCCCO [n-Hexanol],Relative Volatility (m-DIPB to p-DIPB),[1],1.10
CCCCCCCCCO [n-Nonyl alcohol],Azeotrope B.P.,[1],196 °C
same,Relative Volatility (m-DIPB to p-DIPB),[1],1.23
Cc1ccccc1O [o-Cresol],Azeotrope B.P.,[1],184 °C
same,Relative Volatility (m-DIPB to p-DIPB),[1],1.26
CC(C)c1ccccc1O [o-Isopropyl phenol],Azeotrope B.P.,[1],200 °C
same,Relative Volatility (m-DIPB to p-DIPB),[1],1.34
same,"overhead composition, m-DIPB",[5],78%
same,"overhead composition, p-DIPB",[5],22%
same,"stillpot composition, m-DIPB",[5],62.7%
same,"stillpot composition, p-DIPB",[5],37.3%
same,average relative volatility for each theoretical plate,"[5]; Fenske equation, 2.3 plates",1.34
CCC(C)c1ccccc1O (stereo not drawn) [o-sec. Butyl phenol],Azeotrope B.P.,[1],205 °C
same,Relative Volatility (m-DIPB to p-DIPB),[1],1.23
CC(C)(C)c1ccccc1O [o-tert. Butyl phenol],Azeotrope B.P.,[1],205 °C
same,Relative Volatility (m-DIPB to p-DIPB),[1],1.20
Cc1ccc(O)cc1 [p-Cresol],Azeotrope B.P.,[1],188 °C
same,Relative Volatility (m-DIPB to p-DIPB),[1],1.25
"CC(C)c1ccc(C(C)C)cc1 [p-DIPB, p-diisopropylbenzene]",boiling point,[2],210.3 °C
Dipropylene glycol methyl ether,Azeotrope B.P.,[1],186 °C
